Tested on: A2780 cells
Experiment: Expression of the isolated cDNA fragment (differential display, RT-PCR) in A2780 cells treated with cytotoxic agents
Type: cell-based, human
Conditions: for expression of the cDNA fragment: A2780 cells after treatment with the compound
Description: Human ovary carcinoma A2780 cells were treated for 1 hour with an antitumor derivative of distamycin-A at its 50% growth-inhibiting concentration; at the end of the treatment and after 6 and 24 hours the total RNA was isolated by column extraction (SVTotal RNA, Promega Italia) and reverse-transcribed using poly-T primers as indicated in the differential-display kit (GenHunter). The fragments thus obtained were separated on denaturing polyacrylamide gel and detected by autoradiography. The bands whose intensity differed from controls were isolated and purified. One of them (fragment 1), after purification and ^32P-labeling (rediprime kit, Amersham), was used as probe in Northern Blot experiments. The RNA from the same cells was separated on agarose gel, transferred onto nylon membrane and hybridized with the probe.
Cells A2780 were treated with taxol and cisplatin (DDP) and the RNA was extracted before and 24 hours after the treatment. […] A fragment of beta-actin gene was used as internal control.

| SMILES | expression of the cDNA fragment | specific mRNA band by RT-PCR versus control cells (A2780 cells, RNA 24 hours after treatment, beta-actin internal control) |
| --- | --- | --- |
| N.N.[Cl][Pt][Cl] [cisplatin] | increased production of the same fragment | more intense than that of control cells |
| COc1cccc2c1C(=O)c1c(O)c3c(c(O)c1C2=O)C[C@@](O)(C(=O)CO)C[C@@H]3O[C@H]1C[C@H](N)[C@H](O)[C@H](C)O1 [doxorubicin] | increased production of the same fragment |  |
| O=c1[nH]cc(F)c(=O)[nH]1 [fluorouracil] | increased production of the same fragment |  |
| CC(=O)O[C@H]1C(=O)[C@@]2(C)[C@H]([C@H](OC(=O)c3ccccc3)[C@]3(O)C[C@H](OC(=O)[C@H](O)[C@@H](NC(=O)c4ccccc4)c4ccccc4)C(C)=C1C3(C)C)[C@]1(OC(C)=O)CO[C@@H]1C[C@@H]2O [taxol] | increased production of the same fragment |  |

Source: US7189840B2, “Oncosuppressive gene” (Novuspharma S.p.A., priority 2001, dated 2007)
